# Experimental data: publication PMC4977052, “On the Utility of ToxCast™ and ToxPi as Methods for Identifying New Obesogens” (Environmental Health Perspectives, 2016)
# Like-named read-outs stand apart in the source and are kept apart here.
# Key:
# PPARγ [1] = conditions: cited from earlier work
# PPARγ [2] = conditions: ToxCast 2014 release, ref Filer et al. 2014, cited from earlier work
# Human PPARγ = conditions: cited from earlier work
# GAL4-mPPARγ = biological target: T1, GAL4-mPPARγ (Mus musculus, UniProt P37238); test: GAL4-mPPARγ activation, transient transfection luciferase reporter in COS7 cells; format: cell-based
# T1 construct: expressed in transfected cells; host or cells: COS7
# T1 sequence (P37238 with tags, fused parts or gaps limits assumed): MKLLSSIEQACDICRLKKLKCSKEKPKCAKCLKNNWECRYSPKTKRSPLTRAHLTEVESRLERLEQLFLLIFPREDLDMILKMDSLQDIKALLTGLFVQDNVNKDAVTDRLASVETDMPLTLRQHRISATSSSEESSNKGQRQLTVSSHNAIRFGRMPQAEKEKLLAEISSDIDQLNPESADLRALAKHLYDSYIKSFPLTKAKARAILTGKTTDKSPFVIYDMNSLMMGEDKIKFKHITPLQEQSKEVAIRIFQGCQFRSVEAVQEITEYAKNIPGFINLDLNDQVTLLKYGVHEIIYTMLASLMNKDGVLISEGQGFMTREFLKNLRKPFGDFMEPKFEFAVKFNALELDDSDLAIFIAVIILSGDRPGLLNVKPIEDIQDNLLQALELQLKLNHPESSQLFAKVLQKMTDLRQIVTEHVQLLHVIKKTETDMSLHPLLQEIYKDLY
# Protocol: pCMX-Gal4, pCMX-Gal4-mPPARγ, and pCMX-Gal4-hRXRα were previously described ([Grün et al. 2006]). Transient transfections were performed in COS7 cells as described ([Chamorro-García et al. 2012]). Briefly, COS7 cells were seeded at 15,000 cells per well in 96-well tissue culture plates in 10% calf bovine serum. The following day, cells were transfected in Opti-MEM at ~ 90% confluency. One microgram of CMX-GAL4 effector plasmid was co-transfected with 5 μg tk-(MH100)4-luciferase reporter and 5 μg of CMX-β-galactosidase transfection control plasmids in Opti-MEM® using Lipofectamine® 2000 reagent (Invitrogen™ Life Technologies, Carlsbad, CA, USA), following the manufacturer’s recommended protocol. All chemicals were solvated in dimethyl sulfoxide (DMSO). After overnight incubation, the medium was replaced with Dulbecco’s Modified Eagle Medium (DMEM; HyClone, Logan, UT, USA), 10% resin charcoal stripped fetal bovine serum (FBS) plus ligands at concentrations indicated in the figure legends for an additional 24 hr. DMSO concentration was maintained at 0.05% across all chemical treatments. Cells were lysed and assayed for luciferase and β-galactosidase activity as previously described ([Forman et al. 1995]). All transfections were performed in triplicate and reproduced in multiple experiments. Data are reported as fold induction or reduction over vehicle ([…]) controls ± SEM (standard error of the mean) using standard propagation of error ([Bevington and Robinson 2003]). […] The EC50, EC10, IC50, and IC10 values from NCGC and ToxCast™ are reported from gain AC50 and AC10 values in the ToxCast™ 2014 release ([Filer et al. 2014]).
# Figure 1 ToxCast™ Chemical Activity on PPARγ. The ability of a graded dose series of ToxCast™ chemicals to (A) activate or (B) antagonize GAL4-mPPARγ was tested in transiently transfected COS7 cells. (A, B) Data points are averages of triplicate transfections (three biological replicates). […] Data are depicted as (A) fold induction or (B) reduction over vehicle (0.05% DMSO) controls ± SEM. (A) ToxCast™ chemicals were tested in 3-fold serial dilutions from 100 μM through 0.137 μM, with the final data point being 0.05% DMSO. Rosiglitazone serves as a positive control activator. (B) ToxCast™ chemicals were tested in 3-fold serial dilutions from 100 μM, in competition with 50 nM rosiglitazone (Rosi). […] (C) EC50, EC10, IC50, and IC10 values calculated from A and B are reported and compared to commercial assays (see Figure S1). Note: ATG, Attagene GAL-PPARγ activation assay; NCGC, GeneBLAzer® agonist (EC values) or antagonist (IC values) assays. Triphenyltin was previously published ([Kanayama et al. 2005]).
# Figure 4 ToxPi Chemical Activity on PPARγ and RXRα. The ability of a graded dose series of ToxPi chemicals to activate (A) GAL4-mPPARγ or (B) GAL4-hRXRα was tested in transiently transfected COS7 cells. (A, B) Data points are averages of triplicate transfections (three biological replicates). […] ToxPi chemicals were tested in 3-fold serial dilutions from 100 μM through 0.137 μM, with the final data point being 0.05% DMSO. Data are depicted as fold induction over vehicle (0.05% DMSO) controls ± SEM. (A) Rosiglitazone serves as a positive control activator for GAL4-mPPARγ. (B) LG100268 (2-[1-(3,5,5,8,8-Pentamethyl-5,6,7,8-tetrahydro-2-naphthyl)cyclopropyl]pyridine-5-carboxylic acid) serves as a positive control activator for GAL4-hRXRα. (C) EC50 and EC10 values calculated from A and B are reported and compared to other assays (see Figure S1). ATG, Attagene GAL-PPARγ or GAL-RXRα activation assay; NCGC, GeneBLAzer® GAL-PPARγ or GAL-RXRα activation assays. Triphenyltin was previously published ([Kanayama et al. 2005]).
# 3T3-L1 preadipocytes = test: 3T3-L1 adipogenesis assay (lipid accumulation, adipogenic gene expression); format: cell-based; conditions: 0.02-20 μM, 5 days after MDI induction
# Protocol: 3T3-L1 cells (ATCC) were maintained in high-glucose DMEM supplemented with 10% fetal bovine serum, 2 mM L-glutamine, 50 IU/mL penicillin, and 50 μg/mL streptomycin. A total of 2 × 10^4 cells per well were seeded in 12-well plates. After 48 hr, cells were exposed to the adipogenic cocktail MDI (500 μM isobutylmethylxanthine, 0.25 nM dexamethasone and 5 μg/mL insulin), 8 μg/mL biotin and 8 μg/mL pantothenate for 2 days. Induction media was removed and cells were exposed to test chemicals during 5 days, replacing the media every 2 days. Rosiglitazone (ROSI) and tributyltin (TBT) were used as positive controls at 100 nM and 50 nM final concentrations, respectively. All ToxCast™ chemicals were tested at 0.02, 0.2, 2, and 20 μM, and DMSO concentration was maintained at 0.1% across all treatments. If the chemical was toxic at 20 μM, we repeated the experiment at 10 μM.
# Cells were either fixed in 3.7% formaldehyde in phosphate-buffered saline (PBS) for 30 min at room temperature (RT) for lipid quantitation, or homogenized in TriPure (Roche, Mannheim, Germany) for gene expression analysis. For lipid quantitation, fixed cells were washed twice with PBS and maintained in PBS overnight at 4°C to release residual phenol red. Background of cells were measured prior to staining. Cells were stained with 1 μg/mL Nile red (CAS No. 7385-67-3) (to detect lipid accumulation) and 1 μg/mL Hoechst 33342 (ThermoFisher Scientific) (to detect nuclei as a surrogate for cell number) in PBS for 15 min in the dark at RT and washed twice with PBS. […] Background values of Hoechst and Nile red were subtracted from the RFUs after staining and the ratio RFUNile Red:RFUHoechst was calculated. Data are represented as mean ± SEM. Total RNA was isolated using TriPure (Roche) as recommended by the manufacturer. Reverse transcription and quantitative real-time RT-PCR (QPCR) were performed using Transcriptor RT and SYBR® Green Master Mix (Roche). cDNA was quantitated in a LightCycler® 480 System (Roche Diagnostics, Basel, Switzerland) using primer sets listed in Table S4. Each primer set amplified a single band as determined by gel electrophoresis and melting curve analysis. QPCR data were analyzed using the 2^ΔΔCt method ([Livak and Schmittgen 2001]) relative to ribosomal protein 36b4, normalizing to 0.1% DMSO vehicle. Error bars represent the SEM from four to six biological replicates calculated using standard propagation of error ([Bevington and Robinson 2003]).
# [3] = ToxCast 2014 release, ref Filer et al. 2014, read-out: Attagene AC50 (panel B, with Z-Score Correction ranking)
# [4] = read-out: Tox21/NCGC AC50 (panel B)
# [5] = ToxCast 2014 release, ref Filer et al. 2014, read-out: Attagene AC50 (panel A, w/o Z-Score Correction ranking)
# [6] = direct binding, ToxCast 2014 release, ref Filer et al. 2014, read-out: NovaScreen AC50 (panel A)
# [7] = direct binding, ToxCast 2014 release, ref Filer et al. 2014, read-out: NovaScreen AC50 (panel B)
# [8] = read-out: Tox21/NCGC AC50 (panel A)
# [9] = Cos-7 transient transfection, PPARγ or RXRα activation assays (Table 2)
SMILES,AC50 (PPARγ [1]; [3]) [µM],AC50 (PPARγ [1]; [5]) [µM],AC50 (Human PPARγ; [6]) [µM],AC50 (Human PPARγ; [7]) [µM],AC50 (PPARγ [2]; [8]) [µM],also measured
"O=C(O)CCCOc1ccc(Cl)cc1Cl [2,4-DB]",33.4,,,,,AC50 (PPARγ [2]; [4]): 16.7 µM
Oc1ccccc1-c1ccccc1 [2-Phenylphenol],0.1,0.1,1.1,1.1,,
C/C(=N\C#N)N(C)Cc1ccc(Cl)nc1 [Acetamiprid],,,,,,"Activation COS7 (result in words), ToxPi chemicals (GAL4-mPPARγ): Inactive; Adipogenesis 3T3-L1 (result in words) (3T3-L1 preadipocytes): Positive; Adipogenesis 3T3-L1 (result in words) (3T3-L1 preadipocytes; listed as acetamiprid): promoted adipogenesis"
O=C(O)c1cc(Oc2ccc(C(F)(F)F)cc2Cl)ccc1[N+](=O)[O-] [Acifluorfen],37.1,,,13.5,,
CCNc1nc(NC(C)C)nc(SC)n1 [Ametryn],,15.1,31.8,,10.2,
COC(=O)NS(=O)(=O)c1ccc(N)cc1 [Asulam],,,,,,"Activation COS7 (result in words), ToxPi chemicals (GAL4-mPPARγ; [9]): Inactive; Adipogenesis 3T3-L1 (result in words) (3T3-L1 preadipocytes): Negative"
CCOc1nc(F)cc2nc(S(=O)(=O)Nc3c(Cl)cccc3Cl)nn12 [Diclosulam],26.3,,,,,AC50 (PPARγ [2]; [4]): 2.9 µM
CCOP(=S)(OCC)SCCSCC [Disulfoton],81.8,,,1.6,,
CCCSP(=O)(OCC)SCCC [Ethoprop],,,,,,"AC50 (PPARγ [1]; read-out: Attagene AC50 (panel B, with Z-Score Correction ranking)): 114 µM; AC50 (Human PPARγ; read-out: NovaScreen AC50 (panel B)): 3.9 µM"
CCOP(=O)(NC(C)C)Oc1ccc(SC)c(C)c1 (stereo not shown) [Fenamiphos],35.1,35.1,21.2,21.2,14.7,AC50 (PPARγ [2]; [4]): 14.7 µM
N#Cc1nn(-c2c(Cl)cc(C(F)(F)F)cc2Cl)c(N)c1[S+]([O-])C(F)(F)F (stereo not shown) [Fipronil],,39.3,,,,
CCCCOC(=O)C(C)Oc1ccc(Oc2ccc(C(F)(F)F)cn2)cc1 (stereo not shown) [Fluazifop-butyl],2.8,,,0.7,,
Cc1ccn2nc(S(=O)(=O)Nc3c(F)cccc3F)nc2n1 [Flumetsulam],,,,,,"Activation COS7 (result in words), ToxPi chemicals (GAL4-mPPARγ; [9]): Inactive; Adipogenesis 3T3-L1 (result in words) (3T3-L1 preadipocytes): Negative"
CC(C)Oc1cccc(NC(=O)c2ccccc2C(F)(F)F)c1 [Flutolanil],,8.5,10.3,,34.1,
CCCCC(O)(Cn1cncn1)c1ccc(Cl)cc1Cl (stereo not shown) [Hexaconazole],,1.2,0.3,,0.1,
CC(C)NC(=O)N1CC(=O)N(c2cc(Cl)cc(Cl)c2)C1=O [Iprodione],20.9,20.9,2.4,2.4,45.5,AC50 (PPARγ [2]; [4]): 45.5 µM
CS(=O)(=O)c1cc(C(F)(F)F)ccc1C(=O)c1cnoc1C1CC1 [Isoxaflutole],10.4,,,,,AC50 (PPARγ [2]; [4]): 26.4 µM
CCCCOC(=O)c1ccccc1C(=O)O [MBP],18.2,,,0.1,,
Cc1cc(Cl)ccc1OCC(=O)O [MCPA],33.8,33.8,0.1,0.1,253,AC50 (PPARγ [2]; [4]): 253 µM
O=c1ccc(=O)[nH][nH]1 [Maleic hydrazide],,,,,,"Activation COS7 (result in words), ToxPi chemicals (GAL4-mPPARγ; [9]): Inactive; Adipogenesis 3T3-L1 (result in words) (3T3-L1 preadipocytes): Negative"
COc1nn(CSP(=S)(OC)OC)c(=O)s1 [Methidathion],30.6,30.6,0.1,0.1,,
CCSC(=O)N1CCCCCC1 [Molinate],41.3,,,0.1,,
O=C(O)c1c(Cl)ccc2cc(Cl)cnc12 [Quinclorac],0.03,,,0.0002,,
C=CCC1=C(C)[C@@H](OC(=O)[C@@H]2[C@@H](C=C(C)C)C2(C)C)CC1=O [S-Bioallethrin],,,,,,"Activation COS7 (result in words), ToxCast PPARγ list (GAL4-mPPARγ; Cos-7 transient transfection, PPARγ activation or antagonism assays (Table 1, Table S6)): Inactive; AC50 (PPARγ [1]; PPARγ, NA = not active, ref Filer et al. 2014, read-out: ATG Agonist AC50, 2014 Release): 9.2 µM; AC50 (PPARγ [1]; PPARγ, NA = not active, ref Knudsen et al. 2011, read-out: ATG Agonist AC50, 2011 Release): 9.2 µM"
CCNc1nc(Cl)nc(NCC)n1 [Simazine],116,,,1.5,,
CC(C)=CC1C(C(=O)OCN2C(=O)C3=C(CCCC3)C2=O)C1(C)C (stereo not shown) [Tetramethrin],,0.02,0.3,,21.6,
COP(=O)(OC)C(O)C(Cl)(Cl)Cl (stereo not shown) [Trichlorfon],,58.4,,,0.05,
O=C(O)COc1nc(Cl)c(Cl)cc1Cl [Triclopyr],54.7,54.7,2.1,2.1,41.5,AC50 (PPARγ [2]; [4]): 41.5 µM
Oc1cc(Cl)ccc1Oc1ccc(Cl)cc1Cl [Triclosan],,8.6,7.1,,25.8,"Activation of GAL4-PPARγ (text) (GAL4-mPPARγ; COS7, 100 μM through 0.137 μM): inactive"
